The results in this text go back to patent US10167300B2, “Metalloenzyme inhibitor compounds as fungicides” (priority 2014, dated 2019).

Read-outs that look alike come from different tables or passages of the source.

Assay [1] relates to Mycosphaerella graminicola; Anamorph: Septoria tritici; Bayer Code SEPTTR (standard laboratory isolate, SI SEPTTR). The assay can be described thus: Type A (high volume) assay, leaf blotch of wheat, standard laboratory SEPTTR isolate (SI SEPTTR). It is filed as in vivo, Mycosphaerella graminicola on wheat plants (variety Yuma). The note with it: Zymoseptoria tritici, standard laboratory isolate, high volume, 50 ppm, wheat (Yuma). Here is the method:
(§1) Example A: Evaluation of Fungicidal Activity: Leaf Blotch of Wheat (Mycosphaerella graminicola; Anamorph: Septoria tritici; Bayer Code SEPTTR)
(§2) For Type A assays, technical grades of the experimental fungicides in Table 4 below were dissolved in acetone, and then mixed with nine volumes of water containing 110 ppm Triton X-100. The fungicide solutions were applied onto wheat seedlings using an automated booth sprayer. For Type B assays, emulsifiable concentrate (EC) formulations of technical grades of the experimental fungicides in Table 4 below were prepared at 10% (w/v), and then mixed with 150 volumes of 0.1% Trycol 5941. These solutions were applied onto wheat seedlings using an automated track sprayer at 200 L/ha. All sprayed plants were allowed to air dry prior to further handling.
(§3) Wheat plants (variety Yuma) were grown from seed in a greenhouse in 50% mineral soil/50% soil-less Metro mix until the first leaf was fully emerged, with 7-10 seedlings per pot. Prior to or after application of experimental fungicides, plants were inoculated either with spores of a standard laboratory SEPTTR isolate (SI SEPTTR) or with spores from a SEPTTR field isolate collected from Wellsbourne, England in 2012 (FI SEPTTR). After inoculation the plants were kept for 3 days at 20° C. in 100% relative humidity (one day in a dark dew chamber followed by two days in a lighted dew chamber). Plants were then transferred to a 20° C. greenhouse for disease development. When disease symptoms were fully expressed on untreated plants, infection levels on treated plants were assessed on a scale of 0 to 100 percent disease severity. Percent disease control was calculated using the ratio of disease severity on treated plants relative to untreated plants.

A short description of assay [2]: Type B (low volume, EC formulation, track sprayer 200 L/ha) assay, leaf blotch of wheat, SEPTTR field isolate (FI SEPTTR). Format: in vivo, Mycosphaerella graminicola on wheat plants (variety Yuma). The note with it: Zymoseptoria tritici, 72 h, 100 g/ha. The method, then: as §1, §2, §3
Where [3] appears, read: 24 h, 1 Day Protectant, read-out: Disease Control, SI SEPTTR Type A Assay (50 ppm) 1 DP.
Setting [4] is: 72 h, 3 Day Curative, read-out: Disease Control, SI SEPTTR Type A Assay (50 ppm) 3 DC.
The mark [5] stands for this setting: field isolate, low volume EC, 3 Day Curative, wheat (Yuma), read-out: Disease Control, FI SEPTTR Type B Assay (100 g/ha) 3 DC.
[6] abbreviates: field isolate, low volume EC, 3 Day Protectant, wheat (Yuma), read-out: Disease Control, FI SEPTTR Type B Assay (100 g/ha) 3 DP.
[7] abbreviates: SEPTTR field isolate, low volume Type B assay, 3 Day Curative, wheat leaf blotch, read-out: Disease Control, FI SEPTTR Type B Assay (100 g/ha) 3 DC.
Setting [8] is: SEPTTR field isolate, low volume Type B assay, 3 Day Protectant, wheat leaf blotch, read-out: Disease Control, FI SEPTTR Type B Assay (100 g/ha) 3 DP.

With `CC(C)(C)C(O)(Cn1cnnn1)c1ccc(Oc2ccc(Cl)cc2)cn1` (stereo not shown) [Compound 43], the results for the pest or weed control at 50 ppm in assay [1] (setting [3]) and in assay [1] (setting [4]) were 60 to 79% and 80 to 100%, respectively.
Turning to `CC(C)C(O)(c1cccnc1)c1ccc(Oc2ccc(Cl)cn2)cn1` (stereo not shown) [Compound 77], the pest or weed control at 50 ppm in assay [1] (setting [3]) was in the range of 80 to 100%.
Still for that read-out and setting: to `OC(Cc1cccc(Cl)c1)(c1cncnc1)c1ccc(-c2ccc(OC(F)(F)F)cc2)cn1` (stereo not shown) [Compound 141] belongs 60 to 79%.
For the compound `CC(C)C(O)(c1cncnc1)c1ccc(Oc2ccc(Cl)cc2)cn1` (stereo not shown) [Compound 6], the pest or weed control at 50 ppm in assay [1] (setting [3]) and in assay [1] (setting [4]) was 80 to 100% in each case.
Consider `OC(c1cccnc1)(c1ccc(Oc2ccc(Cl)cn2)cn1)C1CC1` (stereo not shown) [Compound 79], for which, in assay [1] (setting [3]), the pest or weed control at 50 ppm is 80 to 100%.
With `Cc1cncc(C(O)(c2ccc(-c3ccc(OC(F)(F)F)cc3)cn2)C(C)(C)C)c1` (stereo not shown) [Compound 144], the pest or weed control at 50 ppm in assay [1] (setting [3]) fell in the range of 80 to 100%.
`OC(Cc1ccc(Cl)cc1Cl)(c1cncnc1)c1ccc(-c2ccc(OC(F)(F)F)cc2)cn1` (stereo not shown) [Compound 142]: the pest or weed control at 50 ppm in assay [1] (setting [3]) lay in the range of 80 to 100%.
As for `CC(C)(C)C(O)(c1cncnc1)c1ccc(-c2ccsc2)cn1` (stereo not shown) [Compound 110], the pest or weed control at 50 ppm in assay [1] (setting [3]) is 80 to 100%.
Turning to `Cc1ccc(Oc2ccc(C(O)(c3cncnc3)C(C)C)nc2)nc1` (stereo not shown) [Compound 53], the pest or weed control at 50 ppm in assay [1] (setting [3]) was 40 to 59%; in assay [1] (setting [4]) it was below 40%.
Turning to `OC(c1cncnc1)(c1ccc(Oc2cccc(Cl)n2)cn1)C1CC1` (stereo not shown) [Compound 72], the pest or weed control at 50 ppm in assay [1] (setting [3]) is below 40%.
Same read-out and setting: to `OC(Cc1ccc(Cl)cc1)(c1cncnc1)c1ccc(-c2ccc(OC(F)(F)F)cc2)cn1` (stereo not shown) [Compound 140] belongs 80 to 100%.
For `OC(CCc1ccc(Cl)cc1F)(Cn1cnnn1)c1ccc(Oc2ccc(Cl)cn2)cn1` (stereo not shown) [Compound 4], the pest or weed control at 50 ppm in assay [1] (setting [3]) is 60 to 79%; in assay [1] (setting [4]), below 40%.
`OC(Cc1cncnc1)(c1ccc(-c2ccc(Cl)cc2)cn1)C1CCCCC1` (stereo not shown) [Compound 52]: the pest or weed control at 50 ppm in assay [1] (setting [3]) and in assay [1] (setting [4]) was 60 to 79% throughout.
With `CN(C)c1ccc(-c2ccc(C(O)(c3cncnc3)C(C)(C)C)nc2)cc1` (stereo not shown) [Compound 100], the pest or weed control at 50 ppm in assay [1] (setting [3]) is 80 to 100%.
Same read-out and setting: to `COc1ccc(-c2ccc(C(O)(c3cncnc3OC)C(C)(C)C)nc2)cn1` (stereo not shown) [Compound 171] belongs 80 to 100%; to `OC(Cc1cccc(F)c1)(c1cncnc1)c1ccc(-c2ccc(OC(F)(F)F)cc2)cn1` (stereo not shown) [Compound 139, 2-(3-fluorophenyl)-1-pyrimidin-5-yl-1-[5-[4-(trifluoromethoxy)-phenyl]-2-pyridyl]ethanol], 80 to 100%.
Turning to `CC(C)(C)C(O)(c1cncnc1)c1ccc(Oc2ccc(Cl)cc2)cn1` (stereo not shown) [Compound 44], the pest or weed control at 50 ppm in assay [1] (setting [3]) and in assay [1] (setting [4]) was below 40% throughout.
On to `CC(C)(C)C(O)(c1cncnc1)c1ccc(-c2ccc3c(c2)CCCO3)cn1` (stereo not shown) [Compound 137], for which the pest or weed control at 50 ppm in assay [1] (setting [3]) lay within 80 to 100%.
In the case of `C=CCCC(O)(c1cncnc1)c1ccc(Oc2ccc(Cl)cc2)cn1` (stereo not shown) [Compound 21, 1-(5-(4-chlorophenoxy)pyridine-2-yl)-1-(pyrimidin-5-yl)pent-4-en-1-ol], the pest or weed control at 50 ppm in assay [1] (setting [3]) and in assay [1] (setting [4]) was 80 to 100% throughout.
Regarding `N#Cc1ccc(Oc2ccc(C(O)(Cn3cnnn3)C3CC3)nc2)cc1` (stereo not shown) [Compound 19, 4-((6-(1-cyclopropyl-1-hydroxy-2-(1H-tetrazol-1-yl)ethyl)pyridin-3-yl)oxy)benzonitrile], the values for the pest or weed control at 50 ppm in assay [1] (setting [3]) and in assay [1] (setting [4]) were below 40% and 40 to 59%, respectively.
The corresponding values for `CC(C)C(O)(Cn1cnnn1)c1ccc(-c2ccc(OC(F)(F)F)cc2)cn1` (stereo not shown) [Compound 61] are 40 to 59% and 60 to 79%.
For `OC(Cc1ccc(Cl)cc1F)(Cn1cnnn1)c1ccc(-c2ccc(OC(F)(F)F)cc2)cn1` (stereo not shown) [Compound 28, 1-(4-chloro-2-fluorophenyl)-3-(1H-tetrazol-1-yl)-2-(5-(4-(trifluoromethoxy)phenyl)pyridin-2-yl)propan-2-ol], the pest or weed control at 50 ppm was in the range of 60 to 79% in assay [1] (setting [3]) and 40 to 59% in assay [1] (setting [4]).
Consider `CCC(C)(C)C(O)(c1cccnc1)c1ccc(-c2ccc(OC(F)(F)F)cc2)cn1` (stereo not shown) [Compound 154], for which, in assay [1] (setting [3]), the pest or weed control at 50 ppm is 80 to 100%.
As for `OC(Cc1ccc(Cl)cc1F)(Cn1cnnn1)c1ccc(Oc2ccc(Cl)cc2)cn1` (stereo not shown) [Compound 42, 1-(4-chloro-2-fluorophenyl)-2-(5-(4-chlorophenoxy)-pyridin-2-yl)-3-(1H-tetrazol-1-yl)propan-2-ol], the pest or weed control at 50 ppm in assay [1] (setting [3]) and in assay [1] (setting [4]) was 80 to 100% each time.
Regarding `OC(Cc1ccc(F)cc1)(c1cncnc1)c1ccc(-c2ccc(OC(F)(F)F)cc2)cn1` (stereo not shown) [Compound 136], the pest or weed control at 50 ppm in assay [1] (setting [3]) was 80 to 100%.
Turning to `N#Cc1ccc(Oc2ccc(C(O)(c3cncnc3)C3CC3)nc2)cc1` (stereo not shown) [Compound 18], the pest or weed control at 50 ppm in assay [1] (setting [3]) and in assay [1] (setting [4]) was below 40% throughout.
With `COc1ncncc1C(O)(c1ccc(-c2ccc(OC(F)(F)F)cc2F)cn1)C(C)(C)C` (stereo not shown) [Compound 187], the pest or weed control at 100 g/ha in assay [2] (setting [5]) and in assay [2] (setting [6]) was 80 to 100% each time.
On to `COc1ncncc1C(O)(c1ccc(-c2ccc(OCC(F)(F)F)cc2)cn1)C(C)(C)C` (stereo not shown) [Compound 203], for which the pest or weed control at 100 g/ha in assay [2] (setting [5]) lay within 40 to 59%; in assay [2] (setting [6]), 80 to 100%.
In the same order, the values of `COc1ncncc1C(O)(c1ccc(-c2ccc(C(C)(C)C#N)cc2)cn1)C(C)(C)C` (stereo not shown) [Compound 240] are 80 to 100% and 80 to 100%.
Consider `CC(O)(c1cncnc1)c1ccc(-c2ccc(OC(F)(F)F)cc2F)cn1` (stereo not shown) [Compound 221], for which the pest or weed control at 100 g/ha was below 40% in assay [2] (setting [5]) and 40 to 59% in assay [2] (setting [6]).
In the same order, the values of `Cc1cc(C2(C#N)CCC2)ccc1-c1ccc(C(O)(c2cncnc2)C(C)(C)C)nc1` (stereo not shown) [Compound 212] are 80 to 100% and 80 to 100%.
The corresponding values for `COc1ncncc1C(O)(c1ccc(-c2ccc(C(C)(F)F)cc2)cn1)C(C)(C)C` (stereo not shown) [Compound 246] are 60 to 79% and 80 to 100%.
In the same order, the values of `CC(C)(C)C(O)(c1cncnc1)c1ccc(-c2ccc(C3(C#N)CC3)cc2F)cn1` (stereo not shown) [Compound 236] are 80 to 100% and 80 to 100%.
Consider `COC(c1cncnc1)(c1ccc(-c2ccc(OCC(F)(F)F)cc2)cn1)C(C)(C)C` (stereo not shown) [Compound 257], for which the pest or weed control at 100 g/ha in assay [2] (setting [7]) and in assay [2] (setting [8]) was 60 to 79% each time.
For `CC(C)(C#N)c1ccc(-c2ccc(C(O)(c3cncnc3)C(C)(C)C)nc2)c(F)c1` (stereo not shown) [Compound 226], the pest or weed control at 100 g/ha in assay [2] (setting [5]) and in assay [2] (setting [6]) was 80 to 100% each time.
In the case of `C#CCOC(C#CC)(c1cncnc1)c1ccc(-c2ccc(OC(F)(F)F)cc2)cn1` (stereo not shown) [Compound 270], the pest or weed control at 100 g/ha in assay [2] (setting [7]) was below 40%; in assay [2] (setting [8]), 40 to 59%.
As to `Cc1cc(C(C)(C)C#N)cc(C)c1-c1ccc(C(O)(c2cncnc2)C(C)(C)C)nc1` (stereo not shown) [Compound 252], the pest or weed control at 100 g/ha in assay [2] (setting [5]) and in assay [2] (setting [6]) was 80 to 100% in each case.
On to `C#CCOC(C)(c1cncnc1)c1ccc(-c2ccc(OC(F)(F)F)cc2F)cn1` (stereo not shown) [Compound 237], for which the pest or weed control at 100 g/ha in assay [2] (setting [5]) is below 40%; in assay [2] (setting [6]), 40 to 59%.
With `COC(c1cncnc1)(c1ccc(-c2ccc(C(C)(C)C#N)cc2)cn1)C(C)(C)C` (stereo not shown) [Compound 214], the pest or weed control at 100 g/ha is below 40% in assay [2] (setting [5]) and 80 to 100% in assay [2] (setting [6]).
On to `CC(C)(C)C(O)(c1cncnc1)c1ccc(-c2ccc(F)cc2F)cn1` (stereo not shown) [Compound 164], for which the pest or weed control at 100 g/ha in assay [2] (setting [5]) and in assay [2] (setting [6]) was 80 to 100% throughout.
With `CCOC(c1cncnc1)(c1ccc(-c2ccc(OC(F)(F)F)cc2)cn1)C(C)C` (stereo not shown) [Compound 272], the figures for the pest or weed control at 100 g/ha in assay [2] (setting [7]) and in assay [2] (setting [8]) were below 40% and 60 to 79%, respectively.
In the case of `CCOC(CC)(c1cncnc1)c1ccc(-c2ccc(OC(F)(F)F)cc2)cn1` (stereo not shown) [Compound 244], the pest or weed control at 100 g/ha in assay [2] (setting [5]) is below 40%; in assay [2] (setting [6]) it was 40 to 59%.
